Results from patent US9416111B2, “Substituted diazine and triazine spleen tyrosine kinease (Syk) inhibitors” (Merck Sharp & Dohme Corp., priority 2012, dated 2016).

target: T1, recombinant human GST-SYK (Homo sapiens, UniProt P43405); experiment: Homogeneous Time-Resolved Fluorescence (HTRF) assay for the recombinant human Syk enzyme; format: biochemical; conditions: GST-hSYK 5 pM, ATP 25 μM, IC50 rated in classes, read-out: rhSYK Activity
T1 construct: purchased Carna Biosciences 08-176
Description: Homogeneous Time-Resolved Fluorescence (HTRF) Assay for the Recombinant Human Syk Enzyme
A recombinant GST-hSYK fusion protein was used to measure potency of compounds to inhibit human Syk activity. The recombinant human GST-SYK (Carna Biosciences #08-176) (5 pM final concentration) was incubated with various concentrations of the inhibitor diluted in DMSO (0.1% final concentration) for 10 minutes at room temperature in 15 mM Tris-HCl (pH 7.5), 0.01% tween 20, 2 mM DTT in 384 well plate format. To initiate the reaction the biotinylated substrate peptide (250 nM final concentration) that contains the phosphorylation site for Syk was added with magnesium (5 mM final concentration) and ATP (25 μM final concentration). Final volume of the reaction was 10 μL. Phosphorylation of the peptide was allowed to proceed for 45′ at room temperature. To quench the reaction and detect the phosphorylated product, 2 nM of a Europium-anti-phosphotyrosine antibody (Perkin Elmer #AD0161) and 70 nM SA-APC (Perkin-Elmer #CR130-100) were added together in 15 mM Tris pH 7.5, 40 mM EDTA, 0.01% tween 20. Final volume of the quenching solution was 10 μL. The resulting HTRF signal was measured after 30 minutes on an EnVision (Perkin-Elmer) reader using a time-resolved fluorescence protocol.

`Cc1cc(Nc2nccc(C(F)(F)F)n2)cc(-c2cnc(N3CCCC3C(N)=O)nc2)c1` (racemic) [Example 2.74, 1-[5-(3-methyl-5-{[4-(trifluoromethyl)pyrimidin-2-yl]amino}phenyl)pyrimidin-2-yl]prolinamide] was tested. Which IC50 did it give?
Its IC50 is under 0.1 µM.

`COCC1CN(c2ncc(-c3cc(C)cc(Nc4nccc(C(F)(F)F)n4)c3)cn2)CCO1` (stereo not shown) [Example 2.25, N-(3-{2-[2-(methoxymethyl)morpholin-4-yl]pyrimidin-5-yl}-5-methylphenyl)-4-(trifluoromethyl)pyrimidin-2-amine] was tested. Which IC50 did it give?
The IC50 was 0.1 to 1 µM.

How did the IC50 turn out when `Cc1cc(Nc2nccc(C)n2)cc(-c2cc(CCC(=O)O)ncn2)c1` [Example 3.52, 3-(6-{3-methyl-5-[(4-methylpyrimidin-2-yl)amino]phenyl}pyrimidin-4-yl)propanoic acid] was run?
The IC50 was 1 to 10 µM.

For `Cc1cc(Nc2nccc(C(F)(F)F)n2)cc(-c2cnc(NCc3cncn3C)nc2)c1` [Example 2.52, N-[3-methyl-5-(2-{[(1-methyl-1H-imidazol-5-yl)methyl]amino}pyrimidin-5-yl)phenyl]-4-(trifluoromethyl)pyrimidin-2-amine], which IC50 is on record?
The IC50 was under 0.1 µM.

With `COc1ccnc(Nc2cc(C)cc(-c3cc(CCC(=O)O)ncn3)c2)n1` [Example 3.47, 3-(6-{3-[(4-methoxypyrimidin-2-yl)amino]-5-methylphenyl}pyrimidin-4-yl)propanoic acid] as the compound, how does the IC50 read?
Its IC50 is 0.1 to 1 µM.

Which IC50 does the source give for `Cc1cc(Nc2nccc(C(F)(F)F)n2)cc(-c2cnc(N3CCS(=O)(=O)CC3)nc2)c1` [Example 2.20, N-{3-[2-(1,1-dioxidothiomorpholin-4-yl)pyrimidin-5-yl]-5-methylphenyl}-4-(trifluoromethyl)pyrimidin-2-amine] here?
Its IC50 is under 0.1 µM.

For `Cc1cc(Nc2nccc(C(F)(F)F)n2)cc(-c2cnc(N(CCO)CCO)nc2)c1` [Example 2.31, 2,2′-{[5-(3-methyl-5-{[4-(trifluoromethyl)pyrimidin-2-yl]amino}phenyl)pyrimidin-2-yl]imino}diethanol], which IC50 is on record?
The IC50 was under 0.1 µM.

With `CCOC(=O)CCc1ccc(-c2cccc(Nc3nccc(C(F)(F)F)n3)c2)nn1` [Example 3.24, ethyl 3-[6-(3-{[4-(trifluoromethyl)pyrimidin-2-yl]amino}phenyl)pyridazin-3-yl]propanoate] as the compound, how does the IC50 read?
Its IC50 is 1 to 10 µM.

Which IC50 does the source give for `Cc1cc(Nc2nccc(C(F)(F)F)n2)cc(-c2cnc(NCC(C)O)nc2)c1` (stereo not shown) [Example 2.60, 1-{[5-(3-methyl-5-{[4-(trifluoromethyl)pyrimidin-2-yl]amino}phenyl)pyrimidin-2-yl]amino}propan-2-ol] here?
The IC50 was under 0.1 µM.

Which IC50 does the source give for `Cc1cc(Nc2nccc(C(F)F)n2)cc(-c2cnc([C@H](C)[C@H]3CC[C@H](C(=O)O)[C@H](C)C3)nc2)c1` (single isomer, unassigned) [Example 7.8] here?
The IC50 was under 0.1 µM.

With `O=C(O)CCc1cncc(-c2cccc(Nc3nccc(C(F)(F)F)n3)c2)n1` [Example 3.14, 3-[6-(3-{[4-(trifluoromethyl)pyrimidin-2-yl]amino}phenyl)pyrazin-2-yl]propanoic acid] as the compound, how does the IC50 read?
Its IC50 is 0.1 to 1 µM.

For `COc1ccnc(Nc2cc(C)cc(-c3cncc(CCC(=O)O)n3)c2)n1` [Example 3.16, 3-(6-{3-[(4-methoxypyrimidin-2-yl)amino]-5-methylphenyl}pyrazin-2-yl)propanoic acid], which IC50 is on record?
Its IC50 is under 0.1 µM.

For `CCCN1CCCN(c2ncc(-c3cc(C)cc(Nc4nccc(C(F)(F)F)n4)c3)cn2)CC1` [Example 2.68, N-{3-methyl-5-[2-(4-propyl-1,4-diazepan-1-yl)pyrimidin-5-yl]phenyl}-4-(trifluoromethyl)pyrimidin-2-amine], which IC50 is on record?
Its IC50 is under 0.1 µM.

With `Cc1cc(Nc2nccc(C(F)(F)F)n2)cc(-c2cnc(CCC(=O)O)nc2)c1` [Example 3.62, 3-[5-(3-methyl-5-{[4-(trifluoromethyl)pyrimidin-2-yl]amino}phenyl)pyrimidin-2-yl]propanoic acid] as the compound, how does the IC50 read?
The IC50 was under 0.1 µM.

`Cc1cc(Nc2nccc(C(F)(F)F)n2)cc(-c2cnc(N3CCC(C)(O)C3)nc2)c1` (stereo not shown) [Example 2.28, 3-methyl-1-[5-(3-methyl-5-{[4-(trifluoromethyl)pyrimidin-2-yl]amino}phenyl)pyrimidin-2-yl]pyrrolidin-3-ol] was tested. Which IC50 did it give?
The IC50 was under 0.1 µM.

For `Cc1cc(Nc2nccc(C(F)(F)F)n2)cc(-c2cnc(NCCCCO)nc2)c1` [Example 2.35, 4-{[5-(3-methyl-5-{[4-(trifluoromethyl)pyrimidin-2-yl]amino}phenyl)pyrimidin-2-yl]amino}butan-1-ol], which IC50 is on record?
The IC50 was under 0.1 µM.

How did the IC50 turn out when `Cc1cc(Nc2nccc(C(F)(F)F)n2)cc(-c2cnc(OC3CCC(C(=O)O)CC3)nc2)c1` (stereo not shown) [Example 3.60, 4-{[5-(3-methyl-5-{[4-(trifluoromethyl)pyrimidin-2-yl]amino}phenyl)pyrimidin-2-yl]oxy}cyclohexanecarboxylic acid] was run?
Its IC50 is under 0.1 µM.

`Cc1cc(Nc2nccc(C(F)(F)F)n2)cc(-c2cnc(N)nc2)c1` [Example 1.3, N-[3-(2-aminopyrimidin-5-yl)-5-methylphenyl]-4-(trifluoromethyl)pyrimidin-2-amine] was tested. Which IC50 did it give?
Its IC50 is under 0.1 µM.

With `Cc1cc(Nc2nccc(C(F)(F)F)n2)cc(-c2cnc(NCC(=O)O)nc2)c1` [Example 2.12, N-[5-(3-methyl-5-{[4-(trifluoromethyl)pyrimidin-2-yl]amino}phenyl)pyrimidin-2-yl]glycine] as the compound, how does the IC50 read?
The IC50 was under 0.1 µM.

With `Cc1cc(Nc2nccc(C3CC3)n2)cc(-c2cc(CCC(=O)O)ncn2)c1` [Example 3.54, 3-(6-{3-[(4-cyclopropylpyrimidin-2-yl)amino]-5-methylphenyl}pyrimidin-4-yl)propanoic acid] as the compound, how does the IC50 read?
The IC50 was 0.1 to 1 µM.

For `Cc1cc(Nc2nccc(C(F)(F)F)n2)cc(-c2ccc(-c3ccc(C(=O)O)cc3)nn2)c1` [Example 3.33, 4-[6-(3-methyl-5-{[4-(trifluoromethyl)pyrimidin-2-yl]amino}phenyl)pyridazin-3-yl]benzoic acid], which IC50 is on record?
The IC50 was under 0.1 µM.

Which IC50 does the source give for `COc1ccnc(Nc2cc(C)cc(-c3cnc(CCC(=O)O)cn3)c2)n1` [Example 3.6, 3-(5-{3-[(4-methoxypyrimidin-2-yl)amino]-5-methylphenyl}pyrazin-2-yl)propanoic acid] here?
The IC50 was under 0.1 µM.

How did the IC50 turn out when `O=C(O)CCc1cc(-c2cccc(Nc3nccc(C(F)(F)F)n3)c2)ncn1` [Example 3.45, 3-[6-(3-{[4-(trifluoromethyl)pyrimidin-2-yl]amino}phenyl)pyrimidin-4-yl]propanoic acid] was run?
The IC50 was 0.1 to 1 µM.

How did the IC50 turn out when `CCOC(=O)CCc1cncc(-c2cc(C)cc(Nc3nccc(C(F)(F)F)n3)c2)n1` [Example 3.17, ethyl 3-[6-(3-methyl-5-{[4-(trifluoromethyl)pyrimidin-2-yl]amino}phenyl)pyrazin-2-yl]propanoate] was run?
Its IC50 is 0.1 to 1 µM.

`CCOC(=O)CCc1ncc(-c2cc(C)cc(Nc3nccc(C)n3)c2)cn1` [Example 1.7, ethyl 3-(5-{3-methyl-5-[(4-methylpyrimidin-2-yl)amino]phenyl}pyrimidin-2-yl)propanoate] was tested. Which IC50 did it give?
The IC50 was 0.1 to 1 µM.

For `Cc1cc(Nc2nccc(C(F)F)n2)cc(-c2cnc([C@H](C)[C@H]3CC[C@H](C(=O)O)[C@H](C)C3)nc2)c1` (single isomer, unassigned) [Example 7.2], which IC50 is on record?
The IC50 was under 0.1 µM.

same assay, conditions: GST-hSYK 5 pM, ATP 25 μM, values in text, read-out: IC50

`Cc1cc(Nc2nccc(C3CC3)n2)cc(-c2cnc(CCC(=O)O)nc2)c1` [Example 3.1, 3-(5-{3-[(4-cyclopropylpyrimidin-2-yl)amino]-5-methylphenyl}pyrimidin-2-yl)propanoic acid] was tested. Which IC50 did it give?
Its IC50 is 0.0516 µM.

How did the IC50 turn out when `Cc1cc(Nc2nccc(C(F)F)n2)cc(-c2cnc([C@H](C)[C@H]3CC[C@H](C(=O)O)[C@H](C)C3)nc2)c1` (single isomer, unassigned) [Example 7.2] was run?
The IC50 was under 0.0005 µM.
